# Results taken from article PMC6792350 (Environmental Health Perspectives, 2019).
# Assays:
# [1] = Cumulative urinary excretion after IV and oral dosing in piglets
# Protocol: Blood samples were collected in heparinized polypropylene tubes, immediately chilled in ice and centrifuged for 10 min at 3,000×g at 4°C, and the supernatant plasma was stored in polypropylene tubes at −20°C until assay. Total urine was filtered through a nylon mesh ( 250μm ) and collected in glass containers and chilled in ice. The volume of each urine sample and the sampling time were recorded. A urine sample was immediately chilled in ice and centrifuged for 10 min at 3,000×g at 4°C and stored at −20°C until assayed.
# Analytes were quantified by Acquity UPLC-MS/MS (Waters Corporation).
# All TK analyses were performed using the Phoenix® NLME (version 8.0; Pharsight Corporation). The plasma mass concentrations were converted into molar concentrations before analysis.
# [2] = design: method as in EFSA CEF Panel 2015; details: ref EFSA CEF Panel 2015; cited from earlier work
# [3] = human; cited from earlier work
# in vivo = test: in vivo
# Protocol: Table 1 summarizes the protocol of the experiments and the plasma and urine datasets further considered for TK analyses.
# For administrations by gavage, BPA powder was dissolved in ethanol–corn oil (1:9, vol:vol) at 100mg/mL (Exp. 1).
# (§1) The plasma analytes concentration–time data from individual piglets were used to derive the maximum concentration (Cmax), and the time to maximum concentration (Tmax). The area under the plasma concentration–time curves from dosing time to the time of the last measurable concentration ( AUC0–tlast ) were calculated using the linear trapezoidal rule (Equation 1). (1) AUC0–tlast=∑0tlast(Ci−1+Ci/2)×(ti−ti−1) where Ci is the concentration obtained at the time i ( ti ).
# (§2) The area under the plasma concentration time curve from t=0 to infinity ( AUC0–inf ) was obtained using Equation 2. (2) AUC0–inf=AUC0–tlast+AUCtlast–inf where AUCtlast–inf is the area extrapolated from the last observation to infinity, calculated according to Equation 3: (3) AUCtlast–inf=Clast/λz where Clast is the last observed quantifiable plasma concentration, and λz is the slope of the terminal phase, as estimated by linear regression using the best fit option of Phoenix®.
# [4] = Noncompartmental toxicokinetic analysis of plasma after IV dosing in piglets
# Protocol: Table 1 summarizes the protocol of the experiments and the plasma and urine datasets further considered for TK analyses. A first experiment (Exp. 1) was performed in 8 male piglets age 42 d ( 20.8±1.6kg BW) to investigate oral BPA TK. […] BPA data obtained after IV BPA administrations had already been used to evaluate human BPA clearance using an allometric approach ([Collet et al. 2015]).
# For the IV administrations, BPA powder was dissolved in ethanol–propylene glycol (1:49, vol:vol) at 50mg/mL (Exp.1 and 2) and in ethanol–saline (1:2, vol:vol) at 23mg/mL (Exp. 5).
# During the first 24 h of sampling, the piglets were housed individually in stainless steel cages.
# as §1, §2
# [5] = no reference given; cited from earlier work
# [6] = Population semiphysiologically based 9-compartment TK model (NLME) of plasma and urine data in piglets; details: for bioavailability: po; for k el: plasma and urine, other: intravenous and oral (data sets combined), tvK30, elimination rate constant from plasma to urine
# Protocol: The NLME model was therefore developed by combining the plasma and urinary data sets from the five TK experiments carried out in piglets, except for the urinary BPA concentration obtained after oral administration of BPA.
# Different compartmental models and submodels were tested and compared using the likelihood ratio test (LRT). The primary parameters of the model, namely the volumes of distribution ( VBPA , VBPAG , VBPS , VBPSG ) and the first-order rate constants ( Kij ) and their associated precisions [standard error (SE)] were estimated by minimizing an objective function value (OFV) expressed as minus twice the log of the likelihood estimation ( −2LL ).
# The between-subject variability (BSV) of the parameters was evaluated using the exponential model θparameter_i=θtv_parameter×exp(ηi) , where θparameter_i is the parameter estimated for the i^th individual, θtv_parameter is the typical population value of the parameter, and ηi is the deviation associated with the i^th individual from the corresponding value of the parameter at the population level. The distribution of ηi was assumed to be normal with a mean of 0 and a variance ω² . The BSV was reported as a coefficient of variation (CV) in the original scale CV(%)=100× exp (ω^2)−1 .
# The residual variance was modeled using a combined additive and proportional error model Cobsij=Cpredij(1+ε1ij)+ε2ij where Cobsij and Cpredij are respectively the j^th observed and predicted concentrations for the i^th individual and ε1ij and ε2ij the multiplicative and additive residual errors.
# The bootstrap tool (20 replicates) was used to evaluate the mean, median, SE, and coefficient of variation of the parameter estimates. The predictive ability of the model was checked graphically by plotting Visual Predictive Check plots to compare the observed data with the selected quantiles (here 20th, 50th and 80th percentiles) of data simulated using the model and obtained from 200–1,000 replicates from each animal based on the structure of the original data (i.e., dosing, timing and number of samples).
# For the LRT test, the critical value of the χ^2 distribution considered for a given nominal risk and a given number of degrees of freedom was obtained using the Excel function CHISQ.INV.RT().
# Figure 1. Schematic representation of the compartmental model. […] The link between the two central compartments was modeled with a compartment (CP2) that should be viewed as the liver. […] The fraction of absorbed BPA that is not hepatically transformed reaches the CP3 via K23 . The exchanges between CP2 and CP3 are bilateral, K32 being the rate constant between CP3 and CP2 and K23 the rate constant between CP2 and CP3. […] It was assumed that no phase-two metabolite other than BPAG (BPSG) was formed.
# (12) Bioavailability=K12/K12+K110+K10×(1−K25/K25+K23) with K10 , K12 , K110 , K23; K25 as defined above.
compound,measurement,setting,value
"CC(C)(c1ccc(O)cc1)c1ccc(O)cc1 [BPA, bisphenol A]",part of the dose eliminated in urine,[1]; 3 h after dosing,About half
same,"unconjugated compound in urine, fraction of IV dose",[1]; IV BPA and BPS doses,0.044±0.028%
same,"tolerable daily intake (TDI), fixed temporarily",[2],4 μg/kg BW per day
same,intestinal intrinsic clearance,[3],7.22 mL/min/kg
same,liver intrinsic clearance,[3],61.2 mL/min/kg
same,AUClast/dose,"in vivo; both, pig, in vivo, po",0.0024±0.0027 μmol×h/L per μmol/kg BW
same,Cl_F (apparent clearance),"in vivo; both, pig, in vivo, po",21170 ± 20830 mL/min/kg
same,Tmax,"in vivo; both, pig, in vivo, po, Tmax",57 ± 33 min
same,Tmax,"in vivo; both, pig, in vivo, po, time to maximal plasma concentration",~60 min
same,mean fraction of total (parent plus glucuronide) in plasma that is unconjugated,"in vivo; oral dosing, piglets",0.16%
same,time after which plasma concentrations were below the LOQ,[4]; after IV BPA and BPS administration,> 12 h
same,AUC0-tlast/dose,"[4]; pig, in vivo, iv",0.34±0.14 μmol×h/L per μmol/kg
same,clearance,"[4]; pig, in vivo, iv",56.8 mL/min/kg
same,LogP,[5],3.3
same,"tvK10, rate constant of unabsorbed compound from the gastrointestinal tract, Mean",[6]; bootstrap mean,0.223 h⁻¹
same,"tvK12, rate constant of absorption by enterocytes passing directly into the portal blood, Mean",[6]; bootstrap mean,0.365 h⁻¹
same,"tvK23, distribution rate constant liver to plasma, Mean",[6]; bootstrap mean,1.53 h⁻¹
same,"tvK32, distribution rate constant, Mean",[6]; bootstrap mean,3.72 h⁻¹
same,"tvK34, distribution rate constant, Mean",[6]; bootstrap mean,5.90 h⁻¹
same,"tvK43, distribution rate constant, Mean",[6]; bootstrap mean,3.89 h⁻¹
same,"tvK110, rate constant of compound absorbed by enterocytes locally subjected to glucuronidation, Mean",[6]; bootstrap mean,0.349 h⁻¹
same,"tvK10, rate constant of unabsorbed compound from the gastrointestinal tract, Median",[6]; bootstrap median,0.219 h⁻¹
same,"tvK12, rate constant of absorption by enterocytes passing directly into the portal blood, Median",[6]; bootstrap median,0.371 h⁻¹
same,"tvK23, distribution rate constant liver to plasma, Median",[6]; bootstrap median,1.32 h⁻¹
same,"tvK32, distribution rate constant, Median",[6]; bootstrap median,3.31 h⁻¹
same,"tvK34, distribution rate constant, Median",[6]; bootstrap median,4.14 h⁻¹
same,"tvK43, distribution rate constant, Median",[6]; bootstrap median,3.68 h⁻¹
same,"tvK110, rate constant of compound absorbed by enterocytes locally subjected to glucuronidation, Median",[6]; bootstrap median,0.318 h⁻¹
same,CL renal,"[6]; both, pig, in vivo",0.0333 mL/min/kg
same,mean volume of the central compartment,"[6]; both, pig, in vivo",1.0 L/kg
same,metabolic hepatic clearance as fraction of plasma clearance,"[6]; both, pig, in vivo",higher than 99%
same,renal clearance as fraction of plasma clearance estimated by noncompartmental analysis,"[6]; both, pig, in vivo",0.06%
same,"tvV, volume of the central compartment, Mean","[6]; both, pig, in vivo",1.03 L/kg
same,"tvV, volume of the central compartment, Median","[6]; both, pig, in vivo",1.00 L/kg
same,bioavailability,"[6]; both, pig, in vivo",0.5%
same,k el,"[6]; both, pig, Mean, bootstrap mean",7.22e-07 s⁻¹
same,k el,"[6]; both, pig, Median, bootstrap median",5.56e-07 s⁻¹
same,fraction of the absorbed dose glucuronidated in the gut,"[6]; oral, % of absorbed dose",44%
same,fraction of the absorbed dose reaching the liver / first-pass glucuronidated in the liver,"[6]; oral, % of absorbed dose",53%
same,fraction of the dose reaching the liver unchanged,"[6]; oral, % of administered dose",40.3%
same,fraction of the dose subjected to hepatic first-pass effect,"[6]; oral, % of administered dose",39.9%
same,hepatic first-pass effect: fraction of compound reaching the liver that is glucuronidated,"[6]; oral, % of the fraction reaching the liver",99%
same,"Fraction of absorbed BPA undergoing a first-pass effect (gut and liver), Mean","[6]; oral, bootstrap mean",0.988
same,"Fraction of administered compound glucuronidated by the gastro-intestinal tract, Mean","[6]; oral, bootstrap mean",0.360
same,"Fraction of administered compound reaching the liver by the portal blood flow, Mean","[6]; oral, bootstrap mean",0.405
same,"fraction absorbed by the gastro-intestinal tract, Mean","[6]; oral, bootstrap mean",0.765
same,"Fraction of absorbed BPA undergoing a first-pass effect (gut and liver), Median","[6]; oral, bootstrap median",0.989
same,"Fraction of administered compound glucuronidated by the gastro-intestinal tract, Median","[6]; oral, bootstrap median",0.340
same,"Fraction of administered compound reaching the liver by the portal blood flow, Median","[6]; oral, bootstrap median",0.403
same,"fraction absorbed by the gastro-intestinal tract, Median","[6]; oral, bootstrap median",0.766
same,CL renal,"[6]; pig, in vivo",0.0333 mL/min/kg
same,"renal clearance, Median","[6]; pig, in vivo",0.0333 mL/min/kg
same,bioavailability,"[6]; pig, in vivo",0.5%
